Results on 14 compounds are retold here after patent US10287267B2, “Isoquinolin-3-yl carboxamides and preparation and use thereof” (Samumed, LLC, priority 2016, dated 2019).

In assay [1] the test system is SW480 colon carcinoma cells. As to the kind of experiment: Cell viability assay (CellTiter-Glo). It counts as cell-based, human. The note with it: SW480 cells, CellTiter-Glo, four days incubation.
The next assay has as its target recombinant GSK3β kinase (Homo sapiens (Human), UniProt P49841). The experiment in a line: GSK3β kinase assay (Ser/Thr 09 peptide Z-lyte FRET).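 Further: kinase activity read as coumarin to fluorescein emission ratio, 11-point threefold dilutions from 10 µM to 0.0003 µM in duplicate, unphosphorylated and phosphorylated peptide as 0% and 100% controls.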 In kind it is biochemical. The note with it: 46 μM ATP, 1 h room temperature.
Assay [2] has as its system Wnt pathway (Sp5-Luc reporter, TCF/LEF binding sites) in SW480 colon carcinoma cells. The experiment in a line: Screening assay for Wnt activity: Sp5-Luc reporter gene assay.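 Further: firefly luciferase luminescence read in stably transduced SW480 cells carrying the Sp5 promoter reporter with eight TCF/LEF sites, compounds given in 0.1% DMSO final.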 It counts as cell-based, human. The conditions noted are these: Sp5-Luc reporter, SW480 cells, 36 to 48 hours.
Experimental: The screening assay for Wnt activity is described as follows.
Following incubation, 15 μl of BriteLite Plus luminescence reagent (Perkin Elmer) was added to each well of the 384-well assay plates. The plates were placed on an orbital shaker for 2 min and then luminescence was quantified using the Envision (Perkin Elmer) plate reader.
The subject of assay [3] is IL-6. The experiment in a line: IL-6 inhibition in LPS-stimulated human peripheral blood mononuclear cells (HTRF).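 Further: IL-6 detected by HTRF with an XL665- and Cryptate-labelled anti-IL-6 antibody pair, samples run in duplicate, EC50 obtained from a four-parameter Levenberg-Marquardt curve fit.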 The note with it: Table 9, huPBMCs, LPS 50 ng/mL, 22 hours, dose-response starting from 10 μM. In kind it is cell-based.
Experimental: After 22 hour incubation, a mixture of anti-IL6 XL665 and anti-IL-6 Cryptate diluted in reconstitution buffer (Catalog #62IL6PEC, Cisbio Inc., Bedford, Mass.) was added to each well. […] All samples were processed in duplicate. […] EC50 was determined using software generated by Dotmatics Limited (Windhill Bishops Stortford Herts, UK) using the Levenberg-Marquardt 4 parameter fitting procedure with finite different gradients.
Assay [4] has as its system IL-6. As to the kind of experiment: Secreted cytokines in lipopolysaccharide-stimulated BV-2 mouse microglial cells: IL-6. It counts as cell-based. The conditions noted are these: BV-2 cells, compounds overnight, LPS 250 ng/mL 5 h. As to the method: (§1) Representative compounds were screened using the cell-based assay procedure for secreted cytokines in a Lipopolysaccharide-stimulated mouse glial cell line described below.
(§2) BV-2 cells (mouse microglial cells) were cultured in 1:1 DMEM medium supplemented with 10% FBS, and 1% penicillin/streptomycin.
(§3) BV-2 cells are plated at 35,000 cells/well in a volume of 100 ul for at least 4 hours before compounds are added. DMSO-resuspended compounds were first dispensed in a 96 well plate and serial diluted from 10 μM to 4.6 nM final concentration in medium. Compounds were added to cells overnight. Two hundred fifty ng per milliliter of lipopolysaccharide (Escherichia coli O55:B5, SIGMA) was added for 5 h. Supernatant is removed and saved for further cytokine detection. The original plates with seeded cells were tested for cytotoxicity by measure of adenosine triphosphate (ATP) release by adding CellTiter-Glo® diluted 1:4 in distilled water (G7573, Promega) and transferring lysed cells to a completely black 96-well plate to be read with the Cytation3. Supernatant was then diluted 1:2 with a diluent from V-PLEX cytokine Kit and directly tested for the secreted cytokines TNFα, IL-6 and KC-GRO using electrochemiluminescence (Meso Scale Discovery). The standard curve for each cytokine was used to convert the electrochemiluminescent signal into pg of protein per mL.

The target of assay [5] is recombinant DYRK1A kinase (Homo sapiens (Human), UniProt Q13627). The experiment in a line: DYRK1A kinase assay (Ser/Thr 18 peptide Z-lyte FRET).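 Further: Read-out is the coumarin to fluorescein emission ratio, referenced to unphosphorylated (0%) and phosphorylated (100%) Ser/Thr 18 peptide controls, values from dose-response curves by non-linear regression.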 It counts as biochemical. The note with it: 30 μM ATP, 1 h room temperature.
In assay [6] the test system is Tau phosphorylation at Ser396 (pSer396). The experiment in a line: Tau phosphorylation assay (pSer396 ELISA / western blot) in SH-SY5Y cells.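 Further: EC50 for reduction of Tau pSer396 in lysed cells, measured by colorimetric ELISA or chemiluminescent western blot, both using the same pSer396 antibody.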 It counts as cell-based, human. The conditions noted are these: read-out: pSer396 Tau EC50.
The subject of another assay is TNFα. The experiment in a line: Secreted cytokines in lipopolysaccharide-stimulated BV-2 mouse microglial cells: TNFα. The conditions noted are these: BV-2 cells, compounds overnight, LPS 250 ng/mL 5 h. In kind it is cell-based. The procedure:
as §1, §2, §3

Assay [7] concerns α-smooth muscle actin (αSMA) positive LL29 cells. The experiment in a line: Inhibition of fibrotic process: αSMA in TGF-β1 treated primary human fibroblasts from IPF patients.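 Further: controls were TGF-β1 stimulated wells with DMSO vehicle (positive) and cells given DMSO alone (negative), cultured in F12 medium with 1% fetal bovine serum.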 The conditions noted are these: Homo sapiens, Fibroblast, 96 h; Table 8; LL29 fibroblasts from IPF patients, TGF-β1 20 ng/mL, 4 days; dose-response 10 μM to 0.94 nM. In kind it is cell-based.
Assay [8] concerns secreted β-amyloid 40 (Aβ40) peptide. The experiment in a line: Secreted β-amyloid 40 (Aβ40) peptide in APP overexpressing SH-SY5Y-APP cells. In kind it is cell-based. The conditions noted are these: Homo sapiens, overnight (16-18 hours).
Experimental: Representative compounds were screened using the cell-based assay procedure for secreted β-amyloid 40 (Aβ40) peptide in an APP overexpressing cell line described below.
SH-SY5Y cells were infected with lentivirus to overexpress amyloid (A4) beta precursor protein (APP), hereafter referred to as the SH-SY5Y-APP cells.
SH-SY5Y cells were seeded onto 6-well plates at
The cell assay procedure start 18 h prior to treatment, as SH-SY5Y-APP cells were seeded onto 96-well plates at
At this time, designated wells were seeded with SH-SY5Y cells that were seeded and treated with puromycin at
Cells were exposed overnight (16-18 hours) in a 37° C. incubator before supernatant was harvested. […] The original plates with seeded cells were tested for cytotoxicity by measure of adenosine triphosphate (ATP) release by adding CellTiter-Glo® diluted 1:4 in distilled water (G7573, Promega) and transferring lysed cells to a completely black 96-well plate to be read with the Cytation3. Plates containing supernatant were spun down at 1200 g for 10 minutes to remove any cellular debris. Supernatant was then diluted 1:2 with a diluent from V-PLEX Aβ40 Peptide (6E10) Kit and directly tested for secreted Aβ40 peptide (K150SKE, Meso Scale Discovery).
Where [9] appears, read: Homo sapiens, SH-SY5Y cells, overnight (16-18 h) exposure.

Where two headings read alike, the source gives them in different places.

Sequence of recombinant GSK3β kinase (P49841 whole entry): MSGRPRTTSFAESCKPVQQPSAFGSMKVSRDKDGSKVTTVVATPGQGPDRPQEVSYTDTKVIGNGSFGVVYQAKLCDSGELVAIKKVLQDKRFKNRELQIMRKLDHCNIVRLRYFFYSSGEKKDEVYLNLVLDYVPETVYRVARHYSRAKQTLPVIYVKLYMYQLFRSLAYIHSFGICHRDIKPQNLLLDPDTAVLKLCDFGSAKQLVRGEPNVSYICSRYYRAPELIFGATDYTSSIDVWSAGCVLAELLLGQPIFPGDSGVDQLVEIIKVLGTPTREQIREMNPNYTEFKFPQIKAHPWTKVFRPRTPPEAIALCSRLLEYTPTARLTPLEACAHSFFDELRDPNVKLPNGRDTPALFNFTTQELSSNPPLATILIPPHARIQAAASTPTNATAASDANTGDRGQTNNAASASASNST

For “1-(2-Hydroxy-2-methylpropyl)-N-(6-(1-methyl-1H-1,2,3-triazol-4-yl) isoquinolin-3-yl)piperidine-4-carboxamide [Compound 1070]”, the EC50 worked out at 8390 nM in assay [1]; 16 nM at recombinant GSK3β kinase; 738 nM in assay [2]; 6470 nM in the assay on IL-6 [3]; 14 nM with IL-6 [4]; 7.6 nM in assay [5]. The EC50 in assay [6] (SH-SY5Y cells, overnight (16-18 h) exposure) was found to be 91 nM.

For `CN1CCC(C(=O)Nc2cc3cc(-c4cnn(C)c4)ccc3cn2)CC1` [Compound 73, 1-Methyl-N-(6-(1-methyl-1H-pyrazol-4-yl)isoquinolin-3-yl)piperidine-4-carboxamide], the EC50 in assay [1] (Homo sapiens, 96 h) was 769 nM; in the assay on TNFα, 23 nM; at recombinant GSK3β kinase it was 49 nM; in assay [2] (Homo sapiens), 485 nM; with IL-6 [3] (Homo sapiens, PBMC), 963 nM; in the assay with IL-6 [4] (Mus musculus) it was 80 nM. Also, the EC50 in [5] is 1.7 nM; in assay [7], 169 nM; in assay [6] (setting [9]), 199 nM.

In assay [8], `Cn1cc(-c2ccc3cnc(NC(=O)C4CCN(CCF)CC4)cc3c2)cn1` [Compound 81, 1-(2-Fluoroethyl)-N-(6-(1-methyl-1H-pyrazol-4-yl)isoquinolin-3-yl) piperidine-4-carboxamide] had an IC50 of 2.3 µM. Moreover, the EC50 in [1] (Homo sapiens, 96 h) was 949 nM; with TNFα, > 10000 nM; on recombinant GSK3β kinase, 30 nM; in [2] (Homo sapiens), 735 nM; in the assay on IL-6 [3] (Homo sapiens, PBMC), 395 nM; with IL-6 [4] (Mus musculus), 30 nM. Also, the EC50 worked out at 1.5 nM in [5], 104 nM in assay [7] and 452 nM in assay [6] (setting [9]).

Regarding `Cn1cc(-c2ccc3cnc(NC(=O)C4CCN(CC(C)(F)F)CC4)cc3c2)cn1` [Compound 83, 1-(2,2-Difluoropropyl)-N-(6-(1-methyl-1H-pyrazol-4-yl)isoquinolin-3-yl) piperidine-4-carboxamide], the IC50 in [8] is > 10 µM. Besides, the EC50 in [1] (Homo sapiens, 96 h) is 6340 nM; at recombinant GSK3β kinase it was 34 nM; in [2] (Homo sapiens), 2900 nM; in the assay with IL-6 [3] (Homo sapiens, PBMC) it was 2150 nM; with IL-6 [4] (Mus musculus), 6 nM; in assay [5] it was 1.2 nM. Moreover, the EC50 is 67 nM in assay [7] and 432 nM in assay [6] (setting [9]).

For the compound `Cn1cc(-c2ccc3cnc(NC(=O)CN4CCCCC4)cc3c2)cn1` [Compound 115, N-(6-(1-Methyl-1H-pyrazol-4-yl)isoquinolin-3-yl)-2-(piperidin-1-yl) acetamide], half-maximal inhibition in [8] (IC50) required 0.956 µM. For the same compound, the EC50 in assay [1] (Homo sapiens, 96 h) is 3500 nM; on recombinant GSK3β kinase, 30 nM; in [2] (Homo sapiens), 2400 nM; in the assay with IL-6 [3] (Homo sapiens, PBMC), 1910 nM; in assay [5], 3.4 nM; in [7] it was 605 nM. The EC50 in [6] (setting [9]) is 311 nM.

As for `Cn1nncc1-c1ccc2cnc(NC(=O)C3CCN(CCC(F)(F)F)CC3)cc2c1` [Compound 248, N-(6-(1-Methyl-1H-1,2,3-triazol-5-yl)isoquinolin-3-yl)-1-(3,3,3-trifluoropropyl)piperidine-4-carboxamide], the IC50 in assay [8] was > 10 µM. Also, the EC50 in assay [1] (Homo sapiens, 96 h) was > 10000 nM; at recombinant GSK3β kinase it was 266 nM; in [2] (Homo sapiens) it was > 10000 nM; in the assay with IL-6 [3] (Homo sapiens, PBMC) it was 9730 nM; in assay [5], 37.4 nM; in [7], 7920 nM. In assay [6] (setting [9]), the EC50 is 905 nM.

As to `Cn1cncc1-c1ccc2cnc(NC(=O)C3CCN(CCC(F)(F)F)CC3)cc2c1` [Compound 262, N-(6-(1-Methyl-1H-imidazol-5-yl)isoquinolin-3-yl)-1-(3,3,3-trifluoropropyl) piperidine-4-carboxamide], inhibition in [8] was half-maximal at 2.2 µM (IC50). For the same compound, the EC50 in assay [1] (Homo sapiens, 96 h) is 1390 nM; with TNFα it was 3200 nM; at recombinant GSK3β kinase it was 24 nM; in [2] (Homo sapiens) it was 1700 nM; with IL-6 [3] (Homo sapiens, PBMC), 1090 nM; in the assay on IL-6 [4] (Mus musculus), 1500 nM. Moreover, the EC50 in assay [5] worked out at 1.5 nM; in [7] it was 43 nM; in [6] (setting [9]), 174 nM.

Turning to `Cn1cncc1-c1ccc2cnc(NC(=O)C3CCC(F)(F)CC3)cc2c1` [Compound 263, 4,4-Difluoro-N-(6-(1-methyl-1H-imidazol-5-yl)isoquinolin-3-yl) cyclohexanecarboxamide], 5.3 µM corresponded to half-maximal inhibition in assay [8] (IC50). Further, the EC50 came out at 1290 nM in [1] (Homo sapiens, 96 h); 18 nM on recombinant GSK3β kinase; 1300 nM in [2] (Homo sapiens); 451 nM in the assay on IL-6 [3] (Homo sapiens, PBMC); 1.3 nM in [5]; 134 nM in [7]. The EC50 in assay [6] (setting [9]) amounted to 119 nM.

On to `Cn1cncc1-c1ccc2cnc(NC(=O)C3C(C)(C)C3(C)C)cc2c1` [Compound 269, 2,2,3,3-Tetramethyl-N-[6-(3-methylimidazol-4-yl)-3-isoquinolyl]cyclopropanecarboxamide], for which, in [8], the IC50 was > 10 µM. For the same compound, the EC50 in assay [1] (Homo sapiens, 96 h) came out at 2330 nM; at recombinant GSK3β kinase, 1020 nM; in [2] (Homo sapiens), 3620 nM; in the assay with IL-6 [3] (Homo sapiens, PBMC), 3390 nM; in [5], 5 nM; in assay [7], 396 nM. The EC50 in [6] (Homo sapiens, SH-SY5Y) was 4300 nM.

`Cn1cc(-c2ccc3cnc(NC(=O)C4CCN(CCC(F)(F)F)CC4)cc3c2)nn1` [Compound 271, N-(6-(1-methyl-1H-1,2,3-triazol-4-yl)isoquinolin-3-yl)-1-(3,3,3-trifluoropropyl)piperidine-4-carboxamide] came in with an IC50 in assay [8] of 4.6 µM. For the same compound, the EC50 in assay [1] (Homo sapiens, 96 h) was found to be 2960 nM; on recombinant GSK3β kinase, 3 nM; in [2] (Homo sapiens) it was 1720 nM; in the assay with IL-6 [3] (Homo sapiens, PBMC), 3080 nM; in [5] it was 2.1 nM; in assay [7] it was 64 nM. Also, the EC50 in [6] (setting [9]) stood at 124 nM.

`Cn1cnnc1-c1ccc2cnc(NC(=O)C3CCN(CCC(F)(F)F)CC3)cc2c1` [Compound 278, N-(6-(4-Methyl-4H-1,2,4-triazol-3-yl)isoquinolin-3-yl)-1-(3,3,3-trifluoropropyl)piperidine-4-carboxamide]: the EC50 is 1230 nM in assay [1] (Homo sapiens, 96 h); > 10000 nM in the assay on TNFα; 7 nM on recombinant GSK3β kinase; 413 nM in [2] (Homo sapiens); 3990 nM in the assay with IL-6 [3] (Homo sapiens, PBMC); 217 nM in the assay on IL-6 [4] (Mus musculus). Moreover, the EC50 in [5] was found to be 3.2 nM; in assay [7], 211 nM; in assay [6] (setting [9]), 76 nM.

Turning to `CN1CC2(CC(C(=O)Nc3cc4cc(-c5cnn(C)c5)ccc4cn3)C2)C1` [Compound 324, 2-Methyl-N-(6-(1-methyl-1H-pyrazol-4-yl)isoquinolin-3-yl)-2-azaspiro[3.3] heptane-6-carboxamide], the EC50 in assay [1] (Homo sapiens, 96 h) turned out to be 266 nM; in the assay on TNFα, 33 nM; on recombinant GSK3β kinase, 30 nM; in [2] (Homo sapiens), 145 nM; in the assay on IL-6 [3] (Homo sapiens, PBMC), 321 nM; with IL-6 [4] (Mus musculus), 20 nM. Also, the EC50 turned out to be 2.1 nM in [5], 68 nM in assay [7] and 180 nM in [6] (setting [9]).

In the case of `Cn1cc(-c2ccc3cnc(NC(=O)CN4CCOCC4)cc3c2)cn1` [Compound 338, N-(6-(1-Methyl-1H-pyrazol-4-yl)isoquinolin-3-yl)-2-morpholinoacetamide], the EC50 in assay [1] (Homo sapiens, 96 h) turned out to be 9330 nM; with TNFα it was 724 nM; at recombinant GSK3β kinase it was 67 nM; in assay [2] (Homo sapiens) it was 7370 nM; in the assay with IL-6 [3] (Homo sapiens, PBMC) it was 4460 nM; in the assay with IL-6 [4] (Mus musculus) it was 144 nM. The figures for the EC50 in assay [5], in assay [7] and in assay [6] (setting [9]) were 6.2 nM, 643 nM and 1700 nM, respectively.

As for `CC(C)CN1CCC(C(=O)Nc2cc3cc(-c4cn(C)nn4)ccc3cn2)CC1` [Compound 468], the EC50 was found to be 2510 nM in [1] (Homo sapiens, 96 h); 2100 nM in the assay with TNFα; 7 nM on recombinant GSK3β kinase; 363 nM in [2] (Homo sapiens); 5780 nM in the assay on IL-6 [3] (Homo sapiens, PBMC); 23 nM with IL-6 [4] (Mus musculus). The EC50 in assay [5] amounted to 4.9 nM; in assay [6] (setting [9]), 39 nM.
